Read-outs that look alike come from different tables or passages of the source. Non-standard residues stand in square brackets, D forms with d. Residues, ends and D or L forms follow the SMILES beside them. sY = N[C@@H](Cc1ccc(OS(=O)(=O)O)cc1)C(=O)O
Assays:
[1] = molecular target: T1, apCCKR1 (Aplysia californica, UniProt A0ABM1AF30); experiment: IP1 accumulation assay, apCCKR1 in CHO-K1 cells; format: cell-based; conditions: CHO-K1 cells transfected with receptor and promiscuous Gαq
T1 sequence (A0ABM1AF30 1-261): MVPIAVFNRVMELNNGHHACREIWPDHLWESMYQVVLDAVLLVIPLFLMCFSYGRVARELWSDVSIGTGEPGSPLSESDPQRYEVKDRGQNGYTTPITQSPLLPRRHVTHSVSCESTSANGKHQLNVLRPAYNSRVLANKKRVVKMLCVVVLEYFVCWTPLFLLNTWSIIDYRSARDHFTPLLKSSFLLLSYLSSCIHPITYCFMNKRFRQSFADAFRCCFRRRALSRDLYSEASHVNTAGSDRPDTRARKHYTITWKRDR
Method: We tested receptor activation using the IP1 (inositol monophosphate) accumulation assay that measures IP1 generated in the Gαq pathway (see STAR Methods).
CHO-K1 cells were cultured in F-12K medium (Gibco, 21127–022) with 10% fetal bovine serum at 37°C in 5% CO2. Before transfection, cells were grown in 35 mm diameter tissue culture-treated dishes to 85% confluence. For transfection, 1.5 μg apCCKR plasmids or control plasmids (in pcDNA3.1(+) vector) and 1.5 μg promiscuous Gαq-family protein (in pcDNA3.1(+) vector) were mixed with 200 μL Opti-MEM (Gibco, 11058021), and 8 μL Turbofect (Thermo Fisher Scientific, R0531). This promiscuous Gαq protein contains substitutions to increase promiscuity,[148] and could bind to most GPCRs, ensuring an IP1 response when a potential ligand binds to its specific GPCR, irrespective of the GPCR’s normal association with any specific Gα proteins. The DNA mixture was incubated at room temperature for 15 min and then added dropwise to the cells in F-12K medium with 10% FBS (no antibiotics), followed by incubation at 37°C in 5% CO2 overnight. The next day, cells were detached using trypsin and reseeded in white 96-well half-area tissue culture-treated plates (Corning, 3688) at a density of 20,000 cells per well in F-12K and 10% FBS, and incubated at 37°C in 5% CO2 overnight. Activation of putative apCCK or related receptor was detected by monitoring IP1 accumulation using IPOne Detection Kit (Cisbio, 62IPAPEB), as previously described.[64],[65],[141],[149],[150]
Dose-response curves and bar graphs for experimental data were plotted using Prism software (GraphPad version 8). Data are presented as mean ± SEM of at least three independent experiments, except that LogEC50 values reported in the main text are the mean ± standard deviation (SD) from at least three independent experiments. Statistical tests were performed using Prism software. They included Student’s t-test, one-way or two-way ANOVA, as appropriate. […] Electrophysiological recordings were digitized online using AxoScope software version 10.7 (Molecular Devices, LLC, Sunnyvale, CA) and were plotted by CorelDraw version 2018 (Corel Corp., Ottawa, Canada).

[2] = system: Aplysia californica; experiment: Feeding behavior (food intake) in intact animals after peptide injection; format: in vivo; conditions: for Behavioral effect (food intake), summary grade: Table S1 summary in words; for Food intake (seaweed consumed in a single meal): injection into hemocoel of apCCK solutions (10^-7 M or 10^-6 M) vs ASW, food-deprived animals
Text: To explore the role of apCCKs as satiety signals in mollusks, we examined their effects on food intake. […] The remaining four forms had no impact (Figure S9). Moreover, [sY6, sY8]-apCCK1 slowed food consumption (Figure 2E), which could stem, in part, from a shift from ingestive to egestive patterns as the meal progressed. [sY6, sY8]-apCCK1 also extended the duration to consume one strip of seaweed compared to controls (Figure 2F), further mimicking natural satiety.
Behavioral experiments were conducted in two batches, each using animals from separate shipments. In the first batch (Figure 2), animals were larger, with an average body weight of 93.3 ± 4.8 g, and were food-deprived for 7 days prior to testing. In the second batch (Figure S9), animals were smaller (average weight: 70.6 ± 4.0 g) and were food-deprived for 5 days to account for their reduced size. In each experiment, two weight-matched animals were housed in separate round net cages (17 cm diameter and 17 cm height) that were placed in a 500 L tank filled with circulating aerated ASW (14°C–16°C). To ensure that the animals were responsive to food, they were first pretested with a small piece of seaweed. After this pretest, in each pair, one animal was injected (into the hemocoel using a syringe needle) with apCCKs freshly dissolved in 1.5 mL ASW, whereas the other was injected with 1.5 mL of ASW. Three minutes later, the feeding session commenced. Animals were hand-fed seaweed (Shirako, Tokyo, Japan) cut in 1 × 10 cm strips, weighing ~0.1 g, increasing 10-fold when hydrated. This hand-feeding approach has been used in prior study of Aplysia feeding behavior.[146],[147] The consumed seaweed amount was converted to hydrated weight and normalized to the animal’s body weight. Each strip of seaweed was delivered to the mouth area with forceps. Feeding was terminated after 1 h or when animals stopped ingesting seaweed for 3 min.

[3] = average of at least three independent experiments, read-out: apCCKR1: EC50
[4] = log[EC50] with negative sign, mean ± SD, at least three independent experiments, SD, read-out: apCCKR1: log[EC50] (converted)

Compound | EC50 [1, 3] | Behavioral effect (food intake), summary grade [2] | Food intake (seaweed consumed in a single meal) [2] | EC50 [1, 4]
CC[C@H](C)[C@H](NC(=O)CNC(=O)[C@H](Cc1ccc(O)cc1)NC(=O)[C@H](CC(=O)O)NC(=O)CNC(=O)[C@H](Cc1ccc(OS(=O)(=O)O)cc1)NC(=O)[C@@H](N)CO)C(=O)NCC(=O)NCC(=O)NCC(=O)N[C@@H](CCCNC(=N)N)C(=O)N[C@@H](Cc1ccccc1)C(N)=O [[sY2]-apCCK2] (H-S[sY]GDYGIGGGRF-NH2) | > 10000 nM | No effect | did not influence feeding | 
CC[C@H](C)[C@H](NC(=O)CNC(=O)[C@H](Cc1ccc(OS(=O)(=O)O)cc1)NC(=O)[C@H](CC(=O)O)NC(=O)CNC(=O)[C@H](Cc1ccc(OS(=O)(=O)O)cc1)NC(=O)[C@@H](N)CO)C(=O)NCC(=O)NCC(=O)NCC(=O)N[C@@H](CCCNC(=N)N)C(=O)N[C@@H](Cc1ccccc1)C(N)=O [[sY2, sY5]-apCCK2] (H-S[sY]GD[sY]GIGGGRF-NH2) |  | Weak | significant but weaker effects | 331 nM
CC[C@H](C)[C@H](NC(=O)CNC(=O)[C@H](Cc1ccc(OS(=O)(=O)O)cc1)NC(=O)[C@H](CC(=O)O)NC(=O)CNC(=O)[C@H](Cc1ccc(O)cc1)NC(=O)[C@@H](N)CO)C(=O)NCC(=O)NCC(=O)NCC(=O)N[C@@H](CCCNC(=N)N)C(=O)N[C@@H](Cc1ccccc1)C(N)=O [[sY5]-apCCK2] (H-SYGD[sY]GIGGGRF-NH2) |  | Moderate | significant but weaker effects | 851 nM
H-SYGDYGIGGGRF-NH2 [apCCK2] | > 10000 nM | No effect | did not influence feeding | 

— paper PMC12535377, “Synaptic and intrinsic plasticity mediated by CCK-type signaling coordinates behavioral changes during motivational state shifts” (Cell reports, 2025)
